The subject of data set [1] is glioma GL261 tumor model. Description: In vivo antitumor activity, glioma GL261 tumor model on immunocompromised Rag2-/- C57BL/6 mice. As to the method:
The combination of […] and irradiation was evaluated on the glioma GL261 tumor model on immunocompromised Rag2^-/- C57BL/6 mice. The mice were orally dosed with 50 mg/kg […] or PBS daily and irradiated with 4 Gy irradiation approximately 4 hrs after dosing, as applicable, for up to 7 days, starting when the tumors reached about […]. A Precision X-ray X-RAD 225 Image Guided Biologic Irradiator (Precision X-Ray Irradiation, North Branford, Connecticut, United States of America) was used for all animal studies. The instrument was set at 225 peak kilovoltage (kVp) and 13 milliampere (mA), with a 0.3 mm flat-board copper (Cu) filter installed before a 15-mm collimator. The irradiation was given in two successive fractions with incident angles of 0° and 180° for each mouse.

In data set [2] the test system is glioma GL261 tumor model. Briefly: In vivo antitumor activity, glioma GL261 tumor model on wildtype C57BL/6 mice (irradiation and PD-L1 antibody combination). The method, then:
The combination of DMAMCL, irradiation, and PD-L1 antibody was evaluated on the glioma GL261 tumor model on wildtype C57BL/6 mice. The treatment began 14 days after the inoculation of 2×10^6 GL261 cells. The mice were orally dosed with 50 mg/kg DMAMCL or PBS daily and irradiated with 2 Gy irradiation approximately 4 hrs after dosing, as applicable, for up to 12 days, starting when the tumors reached ˜150 mm^3-200 mm^3. One group of mice received two doses of 75 μg PD-L1 antibody on days 0 and 4. […] By the cessation of treatment, 3/5 tumors treated with this combination were barely palpable.

The test system of the next data set is GL261 cells. Description: In vitro cytotoxicity against glioma cells GL261 (MTS assay), with or without X-ray irradiation. The format is cell-based, mouse. The method, then: GL261 cells were seeded onto 96-well plates at a density of 2000 cells/well and treated with various concentrations of the dimethylamino Michael adduct of MCL (dimethylamino micheliolide, […]) for 24 hours to allow for sufficient cellular uptake and conversion to MCL before irradiation. The cells were irradiated with varying amounts of X-ray irradiation and then incubated for an additional 24 hours. The culture medium was exchanged with fresh medium and further incubated for an additional 48 hours. The cell viability was then detected by (3-(4,5-dimethylthiazol-2-yl)-5-(3-carboxymethoxyphenyl)-2-(4-sulfophenyl)-2H-tetrazolium) (MTS) assay (Promega, Madison, Wisconsin, United States of America).

As to `CC1=C2CC[C@@](C)(O)[C@@H]2[C@H]2OC(=O)[C@@H](CN(C)C)[C@@H]2CC1` [DMAMCL, dimethylamino micheliolide], the tumor growth entry with glioma GL261 tumor model [1] (DMAMCL 50 mg/kg oral daily plus 4 Gy irradiation about 4 hrs after dosing, up to 7 days) was “successfully controlled tumor growth”; with glioma GL261 tumor model [1] (DMAMCL alone, 50 mg/kg oral daily up to 7 days), “initially suppressed tumor growth”; in the data set on glioma GL261 tumor model [2] (DMAMCL 50 mg/kg oral daily plus 2 Gy irradiation plus 75 μg PD-L1 antibody on days 0 and 4, wildtype C57BL/6 mice), “controlled and regressed tumor growth immediately after treatment”; in the data set on glioma GL261 tumor model [2] (DMAMCL 50 mg/kg oral daily plus 2 Gy irradiation, up to 12 days, wildtype C57BL/6 mice), “suppressed tumor growth and ultimately led to tumor regression”; in the data set with glioma GL261 tumor model [2] (DMAMCL alone, 50 mg/kg oral daily up to 12 days, wildtype C57BL/6 mice) it was “no effect on tumor growth”. Besides, the “tumor size compared to irradiation alone” value in the data set on glioma GL261 tumor model [1] (DMAMCL alone, 50 mg/kg oral daily up to 7 days, final tumor size) was “not significantly different in size”. For the same compound, the “tumors barely palpable by the cessation of treatment” value in the data set on glioma GL261 tumor model [2] (DMAMCL plus 2 Gy irradiation plus PD-L1 antibody, wildtype C57BL/6 mice) is reported as 3/5. Further, the “cytotoxicity (cell viability)” value is listed as “significant cytotoxicity” in the data set on GL261 cells (1 μM DMAMCL and X-ray irradiation of 8 Gy); “significant cytotoxicity” in the data set with GL261 cells (10 μM DMAMCL and X-ray irradiation of 8 Gy). The “toxicity (cell viability)” value with GL261 cells (DMAMCL monotherapy, doses up to 10 μM, no irradiation) is “little to no toxicity”.

Values taken from patent US12048682B2, “Combination of micheliolide derivatives or nanoparticles with ionizing radiation and checkpoint inhibitors for cancer therapy” (The University of Chicago, priority 2018, dated 2024).
